ChEMBL document CHEMBL1201862, “PubChem BioAssay data set” (2004)
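Assay format: 96-well plates, 48-hour exposure. GI50 marks 50% less growth.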 Activity calls are given as the source filed them. No stated cut-off is given here; in the data, active = GI50 up to about 1.1 µM and inactive = higher.

Experiments:
Assay in all cases: NCI tumour cell line growth inhibition, 48 h
[1] = test system: OVCAR-8
[2] = test system: HOP-62
[3] = test system: NCI-H226
[4] = test system: KM12
[5] = test system: M14
[6] = test system: RXF 393
[7] = test system: NCI-H23
[8] = test system: SR
[9] = test system: SK-OV-3
[10] = test system: HCT-116
[11] = test system: A549
[12] = test system: HOP-92
[13] = test system: SK-MEL-5
[14] = test system: DMS-114
[15] = test system: 786-0
[16] = test system: IGROV-1
[17] = test system: Malme-3M
[18] = test system: A498

Measured: GI50

O=c1cc(-c2ccccc2)[nH]c2c(F)ccc(F)c12
inactive: [1] 82 µM | [2] 56 µM | [3] 37.6 µM | [4] 18.5 µM | [5] 35.4 µM | [6] 97.1 µM | [7] > 100 µM | [8] 13.3 µM | [9] > 100 µM | [10] 40.6 µM | [11] 37.9 µM | [12] > 100 µM | [13] 44.1 µM | [14] 28.7 µM | [15] 79.6 µM | [16] > 100 µM | [17] 31.7 µM

COc1ccc2c(c1)CCc1cnn(C3OC(COC(C)=O)C(OC(C)=O)C(OC(C)=O)C3OC(C)=O)c1-2 (stereo not given)
inactive: [1] > 100 µM | [2] > 100 µM | [3] 79.6 µM | [4] > 100 µM | [5] 56 µM | [7] 69 µM | [8] 26.1 µM | [18] > 100 µM | [10] > 100 µM | [11] > 100 µM | [12] 27.3 µM | [13] 44.4 µM | [14] 65.6 µM | [15] 28.2 µM | [17] > 10 µM

COc1ccc(C(=O)C(c2ccc(OC)cc2)C2(O)C(=O)Nc3ccc([N+](=O)[O-])cc32)cc1 (stereo not given)
inactive: [1] > 100 µM | [2] > 100 µM | [3] > 100 µM | [4] > 100 µM | [5] > 100 µM | [6] > 100 µM | [7] > 100 µM | [8] 68.5 µM | [18] 17.7 µM | [9] > 100 µM | [10] > 100 µM | [11] > 100 µM | [12] 32.9 µM | [14] 48.8 µM | [15] > 100 µM | [16] > 100 µM | [17] > 100 µM

O=C(NCCCCCCCCCCCCNC(=O)c1cnc2ccccc2n1)c1cnc2ccccc2n1
inactive: [1] 9.4 µM | [2] 20.6 µM | [3] 48 µM | [4] > 100 µM | [5] > 100 µM | [6] 31.3 µM | [18] 24.9 µM | [9] 22.6 µM | [10] 41.5 µM | [11] 92.5 µM | [13] 9.59 µM | [14] 27.8 µM | [15] 31.7 µM | [16] 54.3 µM | [17] > 100 µM

O=C(CP(=O)(O)O)c1cccs1
inactive: [1] > 100 µM | [2] > 100 µM | [4] > 100 µM | [5] > 100 µM | [7] > 100 µM | [18] > 100 µM | [9] > 100 µM | [10] > 100 µM | [11] > 100 µM | [12] > 100 µM | [13] > 100 µM | [14] > 100 µM | [15] > 100 µM | [16] > 100 µM | [17] > 100 µM

CCOC(=O)/C=C/c1ccccn1
inactive: [1] > 100 µM | [2] > 100 µM | [3] > 100 µM | [4] > 100 µM | [5] > 100 µM | [7] > 100 µM | [8] > 100 µM | [18] > 100 µM | [9] > 100 µM | [10] > 100 µM | [11] > 100 µM | [12] > 100 µM | [13] > 100 µM | [14] > 100 µM | [15] > 100 µM | [16] > 100 µM | [17] > 100 µM

CN(C)NC(=S)NC12CC3CC(CC(C3)C1)C2
inactive: [1] > 100 µM | [2] > 100 µM | [3] > 100 µM | [4] > 100 µM | [5] > 100 µM | [6] > 100 µM | [7] > 100 µM | [18] > 100 µM | [9] > 100 µM | [10] > 100 µM | [11] > 100 µM | [12] 91.2 µM | [13] > 100 µM | [14] > 100 µM | [15] > 100 µM | [16] > 100 µM | [17] > 100 µM

O=C1CCCCC1C1(O)C(=O)Nc2cc(F)ccc21 (stereo not given)
inactive: [1] > 100 µM | [2] > 100 µM | [3] > 100 µM | [4] > 100 µM | [5] > 100 µM | [6] > 100 µM | [7] > 100 µM | [18] > 100 µM | [9] > 100 µM | [10] > 100 µM | [11] > 100 µM | [12] > 100 µM | [13] > 100 µM | [14] > 100 µM | [15] > 100 µM | [16] > 100 µM | [17] > 100 µM
